In patent publication US8067015B2, “Methods and compositions for the treatment and prevention of Staphylococcus and other bacterial infections” (priority 1997, dated 2011):
Where no end group is shown, it is not given here.

Tests used:
[1] = tested on: S. aureus MSSA; experiment: Rat subcutaneous Dacron graft infection model, MSSA strain; type: in vivo; conditions: Table 3B S. aureus, mean ± SD
Method: (§1) Rats (Wistar adult males (300-350 g), n=15/experimental group) were anaesthetized, hair on their back shaved and the skin cleansed with 10% povidone-iodine solution. A subcutaneous pocket was made on the side of the median line by a 1.5 cm incision. Aseptically, 1 cm^2 sterile collagen-sealed Dacron graft (Albograft™, Sorin Biomedica Cardio, S.p.A., Saluggi VC, Italy) was implanted into the pocket. […] Pockets were closed by skin clips and 1 ml sterile saline solution with or without 2×10^7 bacteria was inoculated onto the graft surface using a tuberculin syringe to create a subcutaneous fluid-filled pocket. Some of the animals that had grafts soaked only with RIP or saline were injected intraperitoneally with antibiotics (cefazolin 30 mg/kg, imipenem 30 mg/kg, teicoplanin 10 mg/kg, levofloxacin 10 mg/kg). Grafts were explanted 7 days following implantation. Estimated RIP that adhered to graft was 10-26 μg.
(§2) The explanted grafts were placed in sterile tubes, washed in sterile saline solution, placed in tubes containing 10 ml of phosphate-buffered saline solution and sonicated for 5 min to remove the adherent bacteria from the grafts. Quantitation of viable bacteria was performed by culturing serial 10-fold dilutions (0.1 ml) of the bacterial suspension on blood agar plates. All plates were incubated at 37° C. for 48 hr and evaluated for the presence of the strain. Bacteria were quantitated by counting the number of colony forming unites (CFU) per plate. To determine if bacteria were efficiently removed from the graft, washed and sonicated grafts were observed under a Nikon Eclipse E 600 optical microscope (Nikon Y-THS, Japan).
(§3) Animals (15/group) received a Dacron-graft implanted in a subcutaneous pocket. Graft was subsequently infected with either S. epidermidis (tested on MSSE, MRSE and GISE) or with S. aureus (tested on MSSA, MRSA and GISA). The Dacron-graft prior to implantation was soaked in saline with or without 20 mg/l of RIP and some animals received […] of RIP i.p. as a prophylaxis treatment.

[2] = tested on: S. aureus MRSA; experiment: Rat subcutaneous Dacron graft infection model, MRSA strain; type: in vivo; conditions: Table 3B S. aureus, mean ± SD
Method: as §1, §2, §3

[3] = tested on: bacterial adhesion to polystyrene, silicone and polyurethane; conditions: cited from earlier work
[4] = tested on: bacterial adhesion to HEp2 cells; conditions: cited from earlier work
[5] = tested on: S. epidermidis adherence to polystyrene; experiment: Adherence and biofilm formation of S. epidermidis on polystyrene (safranin); type: cell-based; conditions: polystyrene microtiter plates, 3 hrs
Method: FIG. 14B is a graph depicting adherence in the presence of RIP RIP+ and in the absence of RIP RIP−. S. epidermidis were grown in polystyrene plates for 3 hrs, adherent bacteria were stained by safranin, and absorbance at 490 nm was determined.
To test whether RIP reduces adherence and biofilm formation of S. epidermidis to plastic, early exponential S. epidermidis were grown for 3 hrs in microtiter plates made of polystyrene, and adherent cells were stained with safranin. These experimental conditions allow for biofilm to be formed (as observed by atomic force microscopy, not shown).

[6] = tested on: S. aureus LS-1; conditions: mice; cited from earlier work
[7] = tested on: S. aureus 8325-4; conditions: rabbits; cited from earlier work
[8] = tested on: S. aureus GISA; experiment: Rat subcutaneous Dacron graft infection model, GISA strain; type: in vivo; conditions: Table 3B S. aureus, mean ± SD
Method: as §1, §2, §3

[9] = tested on: S. epidermidis MRSE strain; experiment: Rat subcutaneous Dacron graft infection model, MRSE strain; type: in vivo; conditions: for Bacterial concentration, MRSE: 2×10^7 bacteria, explanted day 7; for Bacterial concentration, MRSE / Bacterial load on graft, MRSE: mean ± SD; for Bacterial load on graft, MRSE: Table 3A S. epidermidis
Method: as §1, with “implantation.” for “implantation. Estimated RIP that adhered to graft was 10-26 μg.”
as §2
Quantitative culture results of the in vivo experiments were presented as mean+SD of the mean. Comparisons of the results were performed by the analysis of variance (ANOVA) on the log-transformed data. Statistical analysis was performed for in vitro adhesion assays using Student's t-Test by Microsoft Excel (Microsoft, Wash.). Significance was accepted when the P value was <0.05.
To test if RIP can prevent graft-associated infections, Dacron grafts were coated with or without RIP, and with or without various types of antibiotics (for local prophylaxis experiments). Coated grafts were implanted in rats, bacteria injected into the implants, implants removed after a week, and bacterial load determined. Alternatively, Dacron grafts were first coated with RIP, bacteria injected, and antibiotics were administered by the intraperitoneal route (for parenteral prophylaxis experiments). As a negative control, grafts were implanted without local or parenteral RIP/antibiotics prophylaxis and no bacteria were injected. As a positive control, grafts were implanted, bacteria were injected, but no RIP/antibiotics prophylaxis was given.
as §3

[10] = tested on: S. epidermidis adherence to HaCat cells; experiment: Adherence of FITC-labeled S. epidermidis to HaCat cells; type: cell-based; conditions: 5 μg RIP, 10^6 CFU, 30 min at 37° C.
Method: FIG. 14A is a graph depicting adherence in the presence of RIP (RIP+) and in the absence of RIP (RIP−). FITC-labeled bacterial cells (10^6 CFU) were applied to microtiter plates containing confluent 10^4 HaCat cells, in the presence or absence of 5 μg RIP (RIP+/−). Cells were incubated for 30 min at 37° C., washed in PBS and fluorescence at 485/530 nm was determined.
Virulence of S. epidermidis is also often associated with their ability to adhere to host cells and to form biofilm on medical devices. To test whether RIP can prevent S. epidermidis from colonizing host cells and therefore be a candidate for therapy and prevention, FITC-labeled S. epidermidis were incubated in the presence or absence of RIP with a confluent layer of keratinocytes (HaCat cells) for 30 min.

[11] = RIP local (graft soaked in 20 mg/l RIP)
[12] = RIP parenteral (10 mg/l RIP i.p.)

YSPWTNF(—NH2) (YSPWTNF-NH2) [RIP]
Bacterial load on graft, MSSE [1, 11]: 0.55 ± 0.19 ×10^4 CFU/ml | Bacterial load on graft, MSSE ([1]; RIP local + RIP parenteral): 0.00 ± 0 ×10^4 CFU/ml | Bacterial load on graft, MSSE [1, 12]: 0.045 ± 0.009 ×10^4 CFU/ml | Bacterial load on graft, MRSE [2, 11]: 0.62 ± 0.21 ×10^4 CFU/ml | Bacterial load on graft, MRSE ([2]; RIP local + RIP parenteral): 0.00 ± 0 ×10^4 CFU/ml | Bacterial load on graft, MRSE [2, 12]: 0.29 ± 0.088 ×10^4 CFU/ml | Bacterial adhesion to plastic [3]: decreased | Bacterial adhesion to eukaryotic cells [4]: decreased | Number of cells that adhered to the plastic [5]: significantly reduced | Suppressing S. aureus infection: septic arthritis [6]: extremely effective | Suppressing S. aureus infection: keratitis [7]: extremely effective | Bacterial load on graft, GISE [8, 11]: 0.70 ± 0.28 ×10^4 CFU/ml | Bacterial load on graft, GISE ([8]; RIP local + RIP parenteral): 0.00 ± 0 ×10^4 CFU/ml | Bacterial load on graft, GISE [8, 12]: 0.49 ± 0.11 ×10^4 CFU/ml | Bacterial concentration, MRSE ([9]; A. Local prophylaxis: graft soaked 20 min in RIP 10 mg/l and/or antibiotic (mupirocin 100, quinupristin-dalfopristin 50, levofloxacin 30, rifampin 5 mg/l), rats): 0.74 ± 0.18 ×10^4 CFU/ml | Bacterial concentration, MRSE ([9]; B. Parenteral prophylaxis: antibiotic intraperitoneally (cefazolin 30, imipenem 30, teicoplanin 10, levofloxacin 10 mg/kg), RIP as 10 mg/l graft soak, rats): 0.74 ± 0.18 ×10^4 CFU/ml | Bacterial load on graft, MRSE [9, 11]: 0.087 ± 0.023 ×10^4 CFU/ml | Bacterial load on graft, MRSE ([9]; RIP local + RIP parenteral): 0.00 ± 0 ×10^4 CFU/ml | Bacterial load on graft, MRSE [9, 12]: 0.052 ± 0.017 ×10^4 CFU/ml | Quantitative culture results of explanted graft, MRSE strain ([9]; peptide-soaked/coated Dacron graft (RIP 10 mg/l), no antibiotic, rats, day 7): 7.4×10^3±1.8×10^3 CFU/ml | S. epidermidis adherence to HaCat cells [10]: significantly (p<0.05) reduced
